Data as given in patent US20100113371A9, “Derivatives Of Pentose Monosaccharides As Anti-Inflammatory Compounds” (RANBAXY LABORATORIES LIMITED INC., priority 2004, published 2010).

Tested on: LTB4 release from neutrophils
Test: A23187 induced LTB4 release
Format: cell-based
Conditions: Neutrophil; neutrophils from healthy human donors, test drug 1 hour at 37° C., 0.3 μg/ml A23187 10 min, LTB4 ELISA; range over the group of compounds; read-out: IC50, percent inhibition of LTB4 release
Description: The compounds of the present invention are tested in one or more of the assays described herein. Standard assays are used to evaluate activity of compounds in present invention on inflammatory cells. Attenuation of agonist-induced release of lipid mediator of neutrophil chemotaxis, leukotriene B4 (LTB4), is used to evaluate inhibitory effect on neutrophils.
Venous blood was collected from healthy human donors using heparin as an anti-coagulant. Neutrophils were isolated from freshly drawn blood after dextran sedimentation and ficoll separation (Eur J. Biochem. 169, 175, 1987). 180 μl of the of neutrophil suspension (0.2×10^6 cells/ml) was taken and added 19 μL of Hank's Buffer salt solution along with 1 μL of the test drug (200 times concentrated) in a 24 well plate and incubated at 37° C. for 1 hour. 3 minutes before the end of test compound incubation, 0.25 mM Ca^++/Mg^++ were added. Then, 0.3 μg/ml A23187 (Sigma Chem, USA) was added and incubated for further 10 min at 37° C. The reaction was stopped by adding 80 μL of cold methanol and centrifuged to remove cell debris (J Pharmacol Exp Ther. 297:267, 2001). The samples were analysed for LTB4 release using LTB4 ELISA kits (Assay Design Inc., USA). The amount of LTB4 released was quantified and percent inhibition of LTB4 release was calculated with respect to the difference between the A23187 stimulated and negative control cells, to compute IC50 values.

## CCCCCCCCCCCCOCC12OC(CNC(=O)Cc3ccc(F)cc3)C(O)C1OC(C)(C)O2 [Compound 69, 1-O-Dodecyl-2,3-O-isopropylidene-6-deoxy-6-{[(4-fluorophenyl)acetyl}amino]-α-L-sorbofuranoside]
  IC50: ≥ 1.3 µM

## CCCCCCCCCCCCOCC12OC(CNC(=O)c3ccncc3)C(O)C1OC(C)(C)O2 [Compound 78, 1-O-Dodecyl-2,3-O-isopropylidene-6-deoxy-6-{[(pyridin-4-yl)-carbonyl]-amino}-α-L-sorbofuranoside]
  IC50: ≥ 1.3 µM

## CCCCCCCCCCCCOCC12OC(CNC(=O)Cc3ccc(Cl)c(Cl)c3)C(O)C1OC(C)(C)O2 [Compound 94, 1-O-Dodecyl-2,3-O-isopropylidene-6-deoxy-6-{[(3,4-dichlorophenyl)acetyl]amino}-α-L-sorbofuranoside]
  IC50: ≥ 1.3 µM

## CCCCCCCCCCCCOCC12OC(CNC(=O)Cc3ccc(OC(F)(F)F)cc3)C(O)C1OC(C)(C)O2 [Compound 106, 1-O-Dodecyl-2,3-O-isopropylidene-6-deoxy-6-{[(4-trifluoromethoxyphenyl)acetyl]amino}-α-L-sorbofuranoside]
  IC50: ≥ 1.3 µM

## CCCCCCCOCC12OC(C)C(C)(OC(=O)NS(=O)(=O)c3ccc(Cl)cc3)C1OC(C)(C)O2 [Compound 116, (4ξ)-1-O-Heptyl-2,3-O-isopropylidene-4-C-methyl-4-O-[{[(4-chlorophenyl)sulphonyl]amino}-carbonyl]-6-deoxy-α-L-erythro-hex-2-ulofuranoside]
  IC50: ≥ 1.3 µM

## CCCCCCCOCC12OC(C)C(C)(OC(=O)NS(=O)(=O)c3ccccc3)C1OC(C)(C)O2 [Compound 117, (4ξ)-1-O-Heptyl-2,3-O-isopropylidene-4-C-methyl-4-O-[{[phenylsulphonyl]amino}carbonyl]-6-deoxy-α-L-erythro-hex-2-ulofuranoside]
  IC50: ≥ 1.3 µM

## CCCCCCCOCC12OC(C)C(C)(OC(=O)NS(=O)(=O)c3ccc(F)cc3)C1OC(C)(C)O2 [Compound 118, (4ξ)-1-O-Heptyl-2,3-O-isopropylidene-4-C-methyl-4-O-[{[(4-fluorophenyl)sulphonyl]amino}-carbonyl]-6-deoxy-α-L-erythro-hex-2-ulofuranoside]
  IC50: ≥ 1.3 µM
